# Test results published in US4260745A, “3-Halo cephalosporins” (Eli Lilly and Company, priority 1979, dated 1981).
# Where two headings read alike, the source gives them in different places.
# Tests used:
# Assay type in all cases: cell-based
# Serratia marcescens [1] = assay: standard disc-plate method, zone of inhibition; design: key: --: A dash indicates no observed zone of inhibition; hazy zone; conditions: Table IV
# Excerpt: (§1) In Table IV below, the in vitro antimicrobial activity of 7-[2-(2-thienyl)acetamido]-3-bromo-3-cephem-4-carboxylic acid is presented for several illustrative microorganisms. The data presented were obtained in the standard disc-plate method with the numerical values recording the diameter in millimeters of the zones of inhibition observed with the named microorganisms.
# [2] = test system: Saccharomyces pastorianus; assay: standard disc-plate method, zone of inhibition; design: key: --: A dash indicates no observed zone of inhibition; hazy zone; conditions: Table IV
# Excerpt: as §1
# Pseudomonas aeruginosa [3] = assay: standard disc-plate method, zone of inhibition; design: key: --: A dash indicates no observed zone of inhibition; hazy zone; conditions: Table IV
# Excerpt: as §1
# [4] = test system: Trichophyton mentagrophytes; assay: standard disc-plate method, zone of inhibition; design: key: --: A dash indicates no observed zone of inhibition; hazy zone; conditions: Table IV
# Excerpt: as §1
# Candida albicans = assay: standard disc-plate method, zone of inhibition; design: key: --: A dash indicates no observed zone of inhibition; hazy zone; conditions: Table IV
# Excerpt: as §1
# Neurospora sp. = assay: standard disc-plate method, zone of inhibition; design: key: --: A dash indicates no observed zone of inhibition; hazy zone; conditions: Table IV
# Excerpt: as §1
# Escherichia coli [5] = assay: standard disc-plate method, zone of inhibition; design: key: --: A dash indicates no observed zone of inhibition; hazy zone; conditions: 0.01 mg./ml.; Table IV
# Excerpt: (§2) The in vitro antimicrobial activity of the 3-halo cephalosporins is illustrated by the data in the following tables. Table I contains the antimicrobial activity for 7-[2-(2-thienyl)acetamido]-3-chloro-3-cephem-4-carboxylic acid obtained in the standard Disc-plate method. The numerical values are the diameter in millimeters of the zones of inhibition observed with the named organisms.
# as §1
# Salmonella gallinarum = assay: standard disc-plate method, zone of inhibition; design: key to Zone of Inhibition (diameter in mm): --: A dash indicates no observed zone of inhibition; hazy zone; conditions: Table IV
# Excerpt: as §2, §1
# [6] = test system: Pseudomonas solanacearcum; assay: standard disc-plate method, zone of inhibition; design: key to Zone of Inhibition (diameter in mm): --: A dash indicates no observed zone of inhibition; hazy zone; conditions: Table IV
# Excerpt: as §2, §1
# Sarcina lutea = assay: standard disc-plate method, zone of inhibition; conditions: Micrococcus luteus, Table IV, read-out: Zone of Inhibition (diameter in mm)
# Excerpt: as §2, §1
# Klebsiella pneumoniae [7] = assay: standard disc-plate method, zone of inhibition; conditions: Table IV, read-out: Zone of Inhibition (diameter in mm)
# Excerpt: as §2, §1
# Staphylococcus aureus = assay: standard disc-plate method, zone of inhibition; conditions: Table IV, read-out: Zone of Inhibition (diameter in mm)
# Excerpt: as §2, §1
# Bacillus subtilis = assay: standard disc-plate method, zone of inhibition; conditions: Table IV, read-out: Zone of Inhibition (diameter in mm); for zone of inhibition at 10 µg/mL: 0.01 mg./ml.; for zone of inhibition at 100 µg/mL: 0.1 mg./ml.; for zone of inhibition at 1000 µg/mL: 1.0 mg./ml.
# Excerpt: as §2, §1
# Klebsiella pneumoniae [8] = assay: Gradient Plate technique, MIC; conditions: read-out: Minimum Inhibitory Concentration
# Excerpt: (§3) The following Table II lists the minimum inhibitory concentration (MIC) for 7-[2-(2-thienyl)acetamido]-3-chloro-3-cephem-4-carboxylic acid against penicillin resistant Staphylococcus both in the presence of and absence of serum. The MIC values were obtained by the Gradient Plate technique carried out essentially as described by Bryson and Szybalski, Science, 116, 45 (1952).
# (§4) In Table III, below, the MIC values for the test compound of Tables I and II against representative gram-negative organisms is presented. The data were obtained by the Gradient Plate technique.
# (§5) The minimum inhibitory concentrations for 7-[2-(2-thienyl)acetamido]-3-bromo-3-cephem-4-carboxylic acid against representative gram-negative bacteria is presented in Table VI. The data were obtained by the Gradient Plate Method.
# (§6) Tables VII and VIII list the minimum inhibitory concentrations of the test compound effective against representative penicillin resistant Staphylococcus strains, while […] the MIC values obtained against representative gram-negative microorganisms. The data were obtained by the Gradient Plate method.
# Serratia marcescens [9] = assay: Gradient Plate technique, MIC; conditions: read-out: Minimum Inhibitory Concentration
# Excerpt: as §3, §4, §5, §6
# Escherichia coli [10] = assay: Gradient Plate technique, MIC; conditions: read-out: Minimum Inhibitory Concentration
# Excerpt: as §3, §4, §5, §6
# Pseudomonas aeruginosa [11] = assay: Gradient Plate technique, MIC; conditions: read-out: Minimum Inhibitory Concentration
# Excerpt: as §3, §4, §5, §6
# Salmonella heidelberg = assay: Gradient Plate technique, MIC; conditions: Salmonella enterica, read-out: Minimum Inhibitory Concentration
# Excerpt: as §3, §4, §5, §6
# Aerobacter aerogenes = assay: Gradient Plate technique, MIC; conditions: Klebsiella aerogenes, read-out: Minimum Inhibitory Concentration
# Excerpt: as §3, §4, §5, §6
# Shigella sp. = assay: Gradient Plate technique, MIC; conditions: read-out: Minimum Inhibitory Concentration
# Excerpt: as §3, §4, §5, §6
# [12] = test system: Methicillin resistant Staphylococcus; assay: Gradient Plate technique, MIC; conditions: Staphylococcus; Clinical Isolate X400 (methicillin resistant); No Serum; read-out: Minimum Inhibitory Concentration
# [13] = test system: Penicillin Resistant Staphylococcus; assay: Gradient Plate technique, MIC; conditions: read-out: Minimum Inhibitory Concentration
# Excerpt: as §3, with “(1952). […]” for “(1952).”
smiles,measurement,setting,value
O=C(Cc1cccs1)NC1C(=O)N2C(C(=O)O)=C(Br)CS[C@H]12 (stereo partly shown) [7-[2-(2-Thienyl)acetamido]-3-bromo-3-cephem-4-carboxylic acid],Zone of Inhibition (diameter in mm),Serratia marcescens [1]; 0.01 mg./ml.,--
same,Zone of Inhibition (diameter in mm),Serratia marcescens [1]; 0.1 mg./ml.,--
same,Zone of Inhibition (diameter in mm),Serratia marcescens [1]; 1.0 mg./ml.,--
same,Zone of Inhibition (diameter in mm),[2]; 0.01 mg./ml.,--
same,Zone of Inhibition (diameter in mm),[2]; 0.1 mg./ml.,--
same,Zone of Inhibition (diameter in mm),[2]; 1.0 mg./ml.,--
same,Zone of Inhibition (diameter in mm),Pseudomonas aeruginosa [3]; 0.01 mg./ml.,--
same,Zone of Inhibition (diameter in mm),Pseudomonas aeruginosa [3]; 0.1 mg./ml.,--
same,Zone of Inhibition (diameter in mm),Pseudomonas aeruginosa [3]; 1.0 mg./ml.,--
same,Zone of Inhibition (diameter in mm),[4]; 0.01 mg./ml.,--
same,Zone of Inhibition (diameter in mm),[4]; 0.1 mg./ml.,--
same,Zone of Inhibition (diameter in mm),[4]; 1.0 mg./ml.,--
same,Zone of Inhibition (diameter in mm),Candida albicans; 0.01 mg./ml.,--
same,Zone of Inhibition (diameter in mm),Candida albicans; 0.1 mg./ml.,--
same,Zone of Inhibition (diameter in mm),Candida albicans; 1.0 mg./ml.,--
same,Zone of Inhibition (diameter in mm),Neurospora sp.; 0.01 mg./ml.,--
same,Zone of Inhibition (diameter in mm),Neurospora sp.; 0.1 mg./ml.,--
same,Zone of Inhibition (diameter in mm),Neurospora sp.; 1.0 mg./ml.,--
same,Zone of Inhibition (diameter in mm),Escherichia coli [5],--
same,Zone of Inhibition (diameter in mm),Salmonella gallinarum; 0.01 mg./ml.,--
same,zone of inhibition at 100 µg/mL,"Salmonella gallinarum; Salmonella enterica, GALLINARUM, 0.1 mg./ml., read-out: Zone of Inhibition (diameter in mm)",15 mm
same,zone of inhibition at 1000 µg/mL,"Salmonella gallinarum; Salmonella enterica, GALLINARUM, 1.0 mg./ml., read-out: Zone of Inhibition (diameter in mm)",30 mm
same,Zone of Inhibition (diameter in mm),[6]; 0.01 mg./ml.,--
same,zone of inhibition at 100 µg/mL,"[6]; Pseudomonas, 0.1 mg./ml., hazy zone (h), read-out: Zone of Inhibition (diameter in mm)",20 mm
same,zone of inhibition at 1000 µg/mL,"[6]; Pseudomonas, 1.0 mg./ml., read-out: Zone of Inhibition (diameter in mm)",31 mm
same,zone of inhibition at 10 µg/mL,Sarcina lutea; 0.01 mg./ml.,17 mm
same,zone of inhibition at 100 µg/mL,Sarcina lutea; 0.1 mg./ml.,33 mm
same,zone of inhibition at 1000 µg/mL,Sarcina lutea; 1.0 mg./ml.,32 mm
same,zone of inhibition at 10 µg/mL,Klebsiella pneumoniae [7]; 0.01 mg./ml.,11 mm
same,zone of inhibition at 100 µg/mL,Klebsiella pneumoniae [7]; 0.1 mg./ml.,19 mm
same,zone of inhibition at 1000 µg/mL,Klebsiella pneumoniae [7]; 1.0 mg./ml.,28 mm
same,zone of inhibition at 10 µg/mL,Staphylococcus aureus; 0.01 mg./ml.,22 mm
same,zone of inhibition at 100 µg/mL,Staphylococcus aureus; 0.1 mg./ml.,25 mm
same,zone of inhibition at 1000 µg/mL,Staphylococcus aureus; 1.0 mg./ml.,27 mm
same,zone of inhibition at 10 µg/mL,Bacillus subtilis; Synthetic medium,43 mm
same,zone of inhibition at 10 µg/mL,Bacillus subtilis,23 mm
same,zone of inhibition at 100 µg/mL,Bacillus subtilis; Synthetic medium,50 mm
same,zone of inhibition at 100 µg/mL,Bacillus subtilis,38 mm
same,zone of inhibition at 1000 µg/mL,Bacillus subtilis; Synthetic medium,60 mm
same,zone of inhibition at 1000 µg/mL,Bacillus subtilis,37 mm
same,MIC,Klebsiella pneumoniae [8],1 µg/mL
same,MIC,Serratia marcescens [9],> 200 µg/mL
same,MIC,Escherichia coli [10],20.8 µg/mL
same,MIC,Pseudomonas aeruginosa [11],> 200 µg/mL
same,MIC,Salmonella heidelberg,1 µg/mL
same,MIC,Aerobacter aerogenes,1 µg/mL
same,MIC,Shigella sp.,19.8 µg/mL
same,MIC,[12],> 20 µg/mL
same,MIC,"[13]; Clinical Isolate V 32, No Serum",0.6 µg/mL
same,MIC,"[13]; Clinical Isolate V 41, No Serum",0.5 µg/mL
same,MIC,"[13]; Clinical Isolate V 84, No Serum",0.4 µg/mL
same,MIC,"[13]; Clinical Isolate X 1.1, No Serum",0.3 µg/mL
